According to publication PMC8842277, “Highly Antiproliferative Latonduine and Indolo[2,3-c]quinoline Derivatives: Complex Formation with Copper(II) Markedly Changes the Kinase Inhibitory Profile” (Journal of Medicinal Chemistry, 2022):
pIC50: −log10 of the molar value.

Assays:
[1] = Aqueous stability in HEPES and PBS buffer by UV–vis; assay type: physicochemical; conditions: pH 7.40, 10 mM HEPES or PBS, several hours
Procedure: Prior to the biological assays, the aqueous stability of selected compounds (HL^4, 4, HL^8, and 8) was measured as a function of time by UV–vis spectrophotometry at pH = 7.40 in 10 mM HEPES in PBS and in blood serum diluted by factor 3 (dilutions were made in HEPES and in PBS as well). […] This process took several hours, and it was in all cases less pronounced in the PBS buffer than in the HEPES medium.
Aqueous stability of 4, 8, and HL^4 was investigated in phosphate-buffered saline (PBS) and 10 mM HEPES buffers and in three-times diluted blood serum (Sigma Aldrich, from human male AB plasma) at pH = 7.40. The concentration of the compounds was between 5 and 10 μM. Blood serum was filtered on a 1.25 μm polyethersulfone membrane syringe filter and diluted with 10 mM HEPES or PBS buffer.

[2] = tested on: multidrug-resistant Colo320 human colon adenocarcinoma cells; assay: MTT antiproliferative assay; assay type: cell-based; conditions: for selectivity factor (SF) Colo320: IC50 MRC-5/IC50 Colo320; for pIC50: MTT, 72 h
Procedure: (§1) The in vitro antiproliferative activity of the compounds was tested in doxorubicin-sensitive Colo205 and multidrug-resistant Colo320 human colon adenocarcinoma cell lines as well as in normal human embryonal lung fibroblast cells (MRC-5) by MTT assay.
(§2) Human colonic adenocarcinoma cell lines Colo 205 doxorubicin-sensitive (ATCC-CCL-222) and Colo 320/MDR-LRP multidrug resistant over-expressing ABCB1 (MDR1)-LRP (ATCC-CCL-220.1) were purchased from LGC Promochem, Teddington, UK. The cells were cultured in an RPMI 1640 medium supplemented with 10% heat-inactivated fetal bovine serum, 2 mM L-glutamine, 1 mM Na-pyruvate, and 10 mM HEPES. The semi-adherent human colon cancer cells were detached with Trypsin-Versene (EDTA) solution for 5 min at 37 °C. An MRC-5 human embryonal lung fibroblast cell line (ATCC CCL-171) was purchased from LGC Promochem, Teddington, UK. The cells were cultured in Eagle’s minimal essential medium (EMEM, containing 4.5 g L^–1 glucose) supplemented with a non-essential amino acid mixture, a selection of vitamins, and 10% heat-inactivated fetal bovine serum. The HCT-116 colon carcinoma cells and isogenic p53-knock-out subline were a gift of Prof. Bert Vogelstein from The Johns Hopkins Oncology Center. Cells were cultured in McCoy’s 5A medium supplemented with 10% heat-inactivated fetal bovine serum and 4 mM L-glutamine. All cell lines were incubated at 37 °C, in a 5% CO2, 95% air atmosphere.
(§3) MRC-5 non-cancerous human embryonic lung fibroblast and human colonic adeno-carcinoma cell lines (doxorubicin-sensitive Colo 205 and multidrug resistant Colo 320 colonic adenocarcinoma cells) were used to determine the effect of compounds on cell growth. The effects of increasing concentrations of compounds on cell growth were tested in 96-well flat-bottomed microtiter plates. The compounds were dissolved in DMSO and stock solutions of 10 mM were prepared. These were further diluted in the appropriate cell culture medium by twofold serial dilution starting from 100 or 10 μM for the compounds. The adherent human embryonal lung fibroblast cells were cultured in 96-well flat-bottomed microtiter plates using EMEM supplemented with 10% heat-inactivated fetal bovine serum. The density of the cells was adjusted to 1 × 10^4 cells in 100 μL per well, the cells were seeded for 24 h at 37 °C, 5% CO2, then the medium was removed from the plates containing the cells, and the dilutions of compounds previously made in a separate plate were added to the cells in 200 μL. In the case of the colonic adenocarcinoma cells, the twofold serial dilutions of compounds were prepared in 100 μL of RPMI 1640, horizontally. The semi-adherent colonic adenocarcinoma cells were treated with Trypsin-Versene (EDTA) solution. They were adjusted to a density of 1 × 10^4 cells in 100 μL of RPMI 1640 medium and were added to each well, with the exception of the medium control wells. The final volume of the wells containing compounds and cells was 200 μL. The culture plates were incubated at 37 °C for 72 h; at the end of the incubation period, 20 μL of MTT (thiazolyl blue tetrazolium bromide, Sigma) solution (from a stock solution of 5 mg mL^–1) was added to each well. After incubation at 37 °C for 4 h, 100 μL of sodium dodecyl sulfate (SDS) (Sigma) solution (10% in 0.01 M HCI) was added to each well and the plates were further incubated at 37 °C overnight. Cell growth was determined by measuring the optical density (OD) at 540/630 nm with a Multiscan EX ELISA reader (Thermo Labsystems, Cheshire, WA, USA). […] Curves were fitted by GraphPad Prism software[57] using the sigmoidal dose–response model (comparing variable and fixed slopes). The IC50 values were obtained from at least three independent experiments. Tests in adherent HCT-116 colon carcinoma cells and an isogenic p53-knock-out subline thereof were performed in a similar manner, with 1.5 × 10^3 cells seeded in 100 μL of McCoy’s 5A medium (Sigma-Aldrich) per well. […]

[3] = tested on: normal human embryonal lung fibroblast cells (MRC-5); assay: MTT antiproliferative assay; assay type: cell-based; conditions: 72 h, read-out: IC50 MRC-5 benign, mean
Procedure: as §1, §2, §3

[4] = tested on: Colo320 cells; assay: Apoptosis assay, Annexin-V-FITC/PI flow cytometry; conditions: 3 h induction
Procedure: An apoptosis assay was performed by flow cytometry via the analysis of multidrug-resistant Colo320 cells stained with Annexin-V-FITC and propidium iodide (PI).
Colo320 cells were treated at the indicated concentration of the compounds. The dual parametric dot plots combining Annexin-V (FL1) and PI (FL3) fluorescence show the viable cell population in the lower left quadrant Annexin-V–/PI– (Q4), the early apoptotic cells in the lower right quadrant Annexin-V+/PI– (Q3), and the late apoptotic and necrotic cells in the upper right quadrant Annexin-V+/PI+ (Q2).
The assay was carried out for selected compounds using an Annexin V-FITC Apoptosis Detection Kit (cat. no. APOAF-50TST) from Sigma according to the manufacturer’s instructions. The concentration of the Colo320 cell suspension was adjusted to approximately 0.5 × 10^6 cells/mL in an RPMI 1640 medium, and the cell suspension was distributed in 1 mL of aliquots into a 24-well plate and then incubated overnight at 37 °C and 5% CO2. On the following day, the medium was removed and replaced by 1 mL of RPMI medium containing the compounds except the control samples. […] After the incubation period, the samples were washed with PBS and fresh RPMI 1640 medium was added to the samples. The cells were incubated overnight at 37 °C and 5% CO2. The next day, 200 μL of 0.25% Trypsin (Trypsin-Versen) was added to the samples until cells appeared detached followed by the addition of 400 μL of RPMI 1640 medium supplemented with 10% bovine serum. The cells were collected in Eppendorf tubes and centrifuged at 2000g for 2 min. The harvested cells were resuspended in fresh serum-free RPMI 1640 culture medium. After this step, the apoptosis assay was carried out according to the instructions of the manufacturer. The fluorescence was analyzed immediately using a ParTec CyFlow flow cytometer (Partec GmbH, Münster, Germany).
• Apoptosis and DNA binding studies […]

Structure (SMILES) | Behaviour in buffer solutions over time [1] | selectivity factor (SF) Colo320 [2] | pIC50 [2] | pIC50 [3] | Cell death % Q1 ([4]; 0.5 µM) | Early apoptosis % Q3 ([4]; 0.5 µM) | Late apoptosis and necrosis % Q2 ([4]; 0.5 µM) | Cell death % Q1 ([4]; 2 µM) | Early apoptosis % Q3 ([4]; 2 µM) | Late apoptosis and necrosis % Q2 ([4]; 2 µM) | Cell death % Q1 ([4]; 0.25 µM) | Early apoptosis % Q3 ([4]; 0.25 µM) | Late apoptosis and necrosis % Q2 ([4]; 0.25 µM)
CC(=NNc1nc2ccccc2c2c1[nH]c1ccc(Br)cc12)c1ccc(CN2CCOCC2)cn1.[Cl][Cu][Cl] [compound 8, CuCl2(HL^8)·H2O] | slow precipitation | 0.30 | 6.26 | 6.78 | 4.52% | 6.01% | 12.1% | 1.76% | 6.91% | 6.97% |  |  | 
CC(=NNC1=NCc2ccccc2-c2c1[nH]c1ccc(Br)cc21)c1ccc(CN2CCOCC2)cn1.[Cl][Cu][Cl] [compound 4, CuCl2(HL^4)·0.5H2O] | slow precipitation | 3.64 | 6.96 | 6.40 | 4.76% | 5.18% | 11.6% |  |  |  | 5.10% | 7.48% | 12.7%
